From US20240399142A1, “Methods Of Using Alternating Electric Fields And Checkpoint Inhibitors” (NOVOCURE GMBH, priority 2023, published 2024)

System: patients with metastatic NSCLC progressing on or after platinum therapy
Assay: LUNAR phase 3 randomized study: overall survival, progression-free survival, radiological response
Protocol: LUNAR was a prospective, phase 3, randomized, open-label, parallel study (EF-24; NCT02973789) of TTFields (150 kHz) therapy concomitant with standard-of-care systemic therapy (docetaxel or investigator's choice immune checkpoint inhibitor) in patients with metastatic NSCLC progressing on or after platinum therapy. LUNAR was conducted at 124 sites across 17 countries in North America, Europe, and Asia (Table Si) between February 2017 and November 2021.
Eligible participants were adults (≥22 years of age) with a histological or cytological diagnosis of metastatic NSCLC that had shown radiological progression while on or after platinum-based systemic therapy (prior ICI permitted). Other than maintenance therapy, the most recent systemic therapy administered for advanced NSCLC was platinum-therapy. […]
Eligible patients were randomly assigned 1:1 (within 28 days of providing informed consent) to receive TTFields therapy to the thorax concomitant with investigator's choice of standard therapy (an immune checkpoint inhibitor [nivolumab, pembrolizumab, or atezolizumab] or docetaxel). Randomization was determined centrally using variable blocked randomization and an IxRS system, and stratified by tumor histology, treatment (docetaxel or an immune checkpoint inhibitor), and region (North America, Western Europe/Israel, and Eastern Europe). […]

CC(=O)O[C@@]12CO[C@@H]1C[C@H](O)[C@@]1(C)C(=O)[C@H](O)C3=C(C)[C@@H](OC(=O)[C@H](O)[C@@H](NC(=O)OC(C)(C)C)c4ccccc4)C[C@@](O)([C@@H](OC(=O)c4ccccc4)[C@H]21)C3(C)C [Docetaxel, docetaxel]
one-year survival rate (docetaxel subgroup): 39.4% | median overall survival (subgroup receiving docetaxel): 8.9 months
